≈ marks a conversion by molar mass, not a printed value.
Assays:
[1] = water solubility of the substrate (aqueous solution prepared)
[2] = stability (decomposition) of the substrate in aqueous solution; format: physicochemical
[3] = prior-art substrate; needs solubilizing auxiliary agent such as cyclodextrin or crown ether; cited from earlier work

Compound	solubility [1] [mM]	degraded at 1 h ([2]; enzyme reaction conditions (pH 5, 37°C) for one hour, read-out: decomposition ratio) [%]	stability of aqueous solution ([2]; under ice-cooling)	degraded ([2]; water, aqueous solution left to stand at room temperature overnight) [%]	solubility in water (in words) [3]
CC(=O)N[C@H]1[C@H](Oc2ccc([N+](=O)[O-])c([N+](=O)[O-])c2)O[C@H](CO)[C@@H](O)[C@@H]1O [3,4-DNG, 3,4-dinitrophenyl-N-acetyl-β-D-glucosaminide]	12 (≈ 4650 µg/mL)	1.5	stable	~1	
CC(=O)N[C@H]1[C@H](Oc2ccc([N+](=O)[O-])cc2Cl)O[C@H](CO)[C@@H](O)[C@@H]1O [2-chloro-4-nitrophenyl-N-acetyl-β-D-glucosaminide]					difficult to dissolve in water
